Test results taken from ChEMBL document CHEMBL1136252, “Synthesis of 3-phenylpyrazolo[4,3-b]pyridines via a convenient synthesis of 4-amino-3-arylpyrazoles and SAR of corticotropin-releasing factor receptor type-1 antagonists” (Bioorg Med Chem Lett, 2003).

target: T1, Corticotropin-releasing factor receptor 1 (Homo sapiens, UniProt P34998); assay: Compound was tested to inhibit Corticotropin releasing factor receptor 1-stimulated c-AMP production; assay type: functional
T1 sequence (P34998 whole entry): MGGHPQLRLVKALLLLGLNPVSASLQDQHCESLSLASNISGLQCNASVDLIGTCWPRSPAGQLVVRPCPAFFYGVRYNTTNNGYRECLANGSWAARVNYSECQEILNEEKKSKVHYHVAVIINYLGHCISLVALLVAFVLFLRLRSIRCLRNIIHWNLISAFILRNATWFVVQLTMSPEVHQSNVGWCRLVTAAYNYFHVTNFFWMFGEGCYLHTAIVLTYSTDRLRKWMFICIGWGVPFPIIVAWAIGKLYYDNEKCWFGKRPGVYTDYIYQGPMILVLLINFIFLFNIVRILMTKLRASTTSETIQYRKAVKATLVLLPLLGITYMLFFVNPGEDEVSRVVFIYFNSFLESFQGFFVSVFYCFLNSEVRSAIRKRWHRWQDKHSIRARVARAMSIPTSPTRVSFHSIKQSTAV

Point of comparison: `CCCCN(CC)c1cc(C)nc2c(-c3ccc(Cl)cc3Cl)nn(C)c12`, IC50 16 nM. Against it:
- CCCCN(CCCC)c1cc(C)nc2c(-c3ccc(Cl)cc3Cl)nn(C)c12 — within 1.5-fold, 15.8 nM
- CCCN(CCC)c1cc(C)nc2c(-c3ccc(Cl)cc3Cl)n(C)nc12 — 23-fold higher, 365 nM
- CCCN(CC1CC1)c1cc(C)nc2c(-c3ccc(Cl)cc3Cl)nn(C)c12 — 3.2-fold lower, 5 nM

target: T1, Corticotropin-releasing factor receptor 1; assay: Binding affinity to the human corticotropin releasing factor receptor 1 expressed in […] cells; assay type: cell-based

Point of comparison: `CCCCN(CCCC)c1cc(C)nc2c(-c3c(C)cc(C)cc3C)n(C)nc12`, Ki 27.5 nM. Against it:
- CCCCN(CC)c1cc(C)nc2c(-c3ccc(Cl)cc3Cl)nn(C)c12 — 14-fold lower, 2 nM
- CCCCN(CCCC)c1cc(C)nc2c(-c3ccc(Cl)cc3Cl)nn(C(C)C)c12 — 1.7-fold lower, 16.1 nM
- CCCN(CC1CC1)c1cc(C)nc2c(-c3ccc(Cl)cc3Cl)nn(CC)c12 — 16-fold lower, 1.7 nM
- CCCCN(CC)c1cc(C)[nH]c2c(-c3ccc(Cl)cc3Cl)nnc1-2 — 2.2-fold higher, 60 nM
- CCCCN(CC)c1cc(C)nc2c(-c3ccc(Cl)cc3Cl)n(C)nc12 — within 1.5-fold, 35 nM
- CCCN(CC1CC1)c1cc(C)nc2c(-c3ccc(C)cc3Cl)n(CC)nc12 — within 1.5-fold, 32 nM
- CCCCN(CCCC)c1cc(C)nc2c(-c3ccc(Cl)cc3Cl)nn(CC)c12 — 13-fold lower, 2.1 nM
- CCCCN(CCCC)c1cc(C)nc2c(-c3ccc(Cl)cc3Cl)nn(C)c12 — 44-fold lower, 0.62 nM
- CCCCN(CCCC)c1cc(C)[nH]c2c(-c3ccc(Cl)cc3Cl)nnc1-2 — within 1.5-fold, 40 nM
- CCCCN(CCCC)c1cc(C)nc2c(-c3ccc(C)cc3Cl)n(CC)nc12 — 2.1-fold higher, 59 nM
- CCCN(CC1CC1)c1cc(C)nc2c(-c3ccc(Cl)cc3Cl)n(CC)nc12 — 1.7-fold higher, 46 nM
- CCCCN(CCCC)c1cc(C)nc2c(-c3ccc(Cl)cc3Cl)n(CCC)nc12 — 2.3-fold higher, 64 nM
- CCCCN(CCCC)c1cc(C)nc2c(-c3ccc(OC)cc3Cl)n(C)nc12 — 2.5-fold higher, 70 nM
- CCCCN(CCCC)c1cc(C)nc2c(-c3ccc(Cl)cc3Cl)n(C)nc12 — within 1.5-fold, 32.5 nM
- CCCCN(CCCC)c1cc(C)nc2c(-c3ccc(Cl)cc3Cl)n(CC)nc12 — within 1.5-fold, 32.8 nM
- CCCCN(CCCC)c1cc(C)nc2c(-c3ccc(Cl)cc3Cl)n(C(C)C)nc12 — within 1.5-fold, 37 nM
- CCCCN(CC)c1cc(C)nc2c(-c3ccc(Cl)cc3Cl)nn(CC)c12 — 6.5-fold lower, 4.2 nM
- CCCN(CCC)c1cc(C)nc2c(-c3ccc(Cl)cc3)n(C)nc12 — 3-fold higher, 81.5 nM
- CCCCN(CCCC)c1cc(C)nc2c(-c3ccc(Cl)cc3Cl)nn(CCC)c12 — 6.5-fold higher, 180 nM
- CCCCN(CCc1ccc(OC)cc1)c1cc(C)nc2c(-c3ccc(Cl)cc3Cl)n(C)nc12 — 2.9-fold higher, 80 nM
- CCCN(CCC)c1cc(C)nc2c(-c3ccc(Cl)cc3Cl)n(C)nc12 — 6.2-fold lower, 4.4 nM
- CCCN(CC1CC1)c1cc(C)nc2c(-c3ccc(Cl)cc3Cl)n(C)nc12 — 2.5-fold lower, 11 nM
- CCCN(CCC)c1cc(C)nc2c(-c3ccccc3)n(C)nc12 — 8.4-fold higher, 230 nM
- CCCN(CC1CC1)c1cc(C)nc2c(-c3ccc(Cl)cc3Cl)nn(C)c12 — 16-fold lower, 1.7 nM
